ChEMBL document CHEMBL3817804 (Medchemcomm, 2016)

Experiments:
[1] = target: T1, Solute carrier family 15 member 1 (Oryctolagus cuniculus, UniProt P36836); test: Inhibition of [3H]-D-Phe-L-Gln uptake at rabbit PepT1 expressed in Xenopus laevis oocytes at pH 5.5 measured after 1 hr by scintillation counting method; assay type: cell-based
T1 sequence (P36836 whole entry): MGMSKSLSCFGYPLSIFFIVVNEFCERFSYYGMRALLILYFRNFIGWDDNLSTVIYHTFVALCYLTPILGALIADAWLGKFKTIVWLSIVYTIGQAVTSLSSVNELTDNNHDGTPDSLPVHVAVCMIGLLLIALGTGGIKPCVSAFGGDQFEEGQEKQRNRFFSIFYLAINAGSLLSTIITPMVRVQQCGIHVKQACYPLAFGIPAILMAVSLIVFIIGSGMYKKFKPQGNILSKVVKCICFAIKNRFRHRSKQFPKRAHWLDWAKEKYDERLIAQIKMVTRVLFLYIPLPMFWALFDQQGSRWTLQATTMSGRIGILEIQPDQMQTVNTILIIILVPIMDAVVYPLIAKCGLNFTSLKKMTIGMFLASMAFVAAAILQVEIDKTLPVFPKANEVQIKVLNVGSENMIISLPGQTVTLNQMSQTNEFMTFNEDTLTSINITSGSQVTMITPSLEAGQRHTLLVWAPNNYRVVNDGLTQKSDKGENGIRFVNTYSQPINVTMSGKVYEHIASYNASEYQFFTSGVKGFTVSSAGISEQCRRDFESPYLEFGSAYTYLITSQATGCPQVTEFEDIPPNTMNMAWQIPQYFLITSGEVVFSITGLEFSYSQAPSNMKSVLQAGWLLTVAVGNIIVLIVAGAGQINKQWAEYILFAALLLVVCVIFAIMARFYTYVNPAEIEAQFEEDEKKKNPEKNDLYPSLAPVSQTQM

[2] = target: T1, Solute carrier family 15 member 1; test: Substrate activity at rabbit PepT1 expressed in Xenopus laevis oocytes assessed as drug transportation across membrane under holding potential at -30 mV at 2 mM by two electrode voltage-clamp method; assay type: ADME, cell-based; settings: 2000 µM

Ki [1]: 1110 µM | Activity [2]: 322 nA
Structure (SMILES): C/C=C/C[C@H](C)[C@@H](OC(=O)CNC(=O)C[C@@H](NC(=S)[C@H](C)N)C(=O)O)[C@@H]1C(=O)N[C@@H](CC)C(=O)N(C)CC(=O)N(C)[C@H](CC(C)C)C(=O)N[C@H](C(C)C)C(=O)N(C)[C@H](CC(C)C)C(=O)N[C@H](C)C(=O)N[C@H](C)C(=O)N(C)[C@H](CC(C)C)C(=O)N(C)[C@H](CC(C)C)C(=O)N(C)[C@H](C(C)C)C(=O)N1C
